# Key:
# [1] = Lipophilicity, log D of the compound; type: physicochemical; conditions: octanol/water
# [2] = Partition coefficient, log P of the compound; type: physicochemical; conditions: octanol/water
# [3] = target: Translocator protein (Homo sapiens, UniProt P30536); assay: Inhibition of TSPO (unknown origin)
# [4] = Inhibition of CBR (unknown origin); set-up: species or system Homo sapiens
# [5] = Inhibition of MARK (unknown origin); set-up: species or system Homo sapiens
# [6] = target: T1, 5-hydroxytryptamine receptor 3A (Homo sapiens, UniProt P46098); assay: Antagonist activity at 5-HT3 receptor (unknown origin)
# T1 sequence (P46098 whole entry): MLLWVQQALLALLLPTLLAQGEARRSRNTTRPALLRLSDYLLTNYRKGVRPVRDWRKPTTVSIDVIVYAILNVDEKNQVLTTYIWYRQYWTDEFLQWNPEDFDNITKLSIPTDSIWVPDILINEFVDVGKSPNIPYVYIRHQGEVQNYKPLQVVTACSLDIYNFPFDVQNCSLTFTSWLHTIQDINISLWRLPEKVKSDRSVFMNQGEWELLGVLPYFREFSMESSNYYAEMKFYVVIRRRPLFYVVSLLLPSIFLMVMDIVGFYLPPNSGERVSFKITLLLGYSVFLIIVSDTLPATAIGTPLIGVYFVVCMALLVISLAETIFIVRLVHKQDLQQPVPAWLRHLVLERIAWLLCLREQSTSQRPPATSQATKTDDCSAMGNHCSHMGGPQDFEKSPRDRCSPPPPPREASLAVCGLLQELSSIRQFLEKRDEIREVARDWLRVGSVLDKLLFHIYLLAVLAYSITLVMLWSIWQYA
# [7] = target: T2, Sodium- and chloride-dependent glycine transporter 1 (Homo sapiens, UniProt P48067); assay: Inhibition of GlyT1 (unknown origin)
# T2 sequence (P48067 whole entry): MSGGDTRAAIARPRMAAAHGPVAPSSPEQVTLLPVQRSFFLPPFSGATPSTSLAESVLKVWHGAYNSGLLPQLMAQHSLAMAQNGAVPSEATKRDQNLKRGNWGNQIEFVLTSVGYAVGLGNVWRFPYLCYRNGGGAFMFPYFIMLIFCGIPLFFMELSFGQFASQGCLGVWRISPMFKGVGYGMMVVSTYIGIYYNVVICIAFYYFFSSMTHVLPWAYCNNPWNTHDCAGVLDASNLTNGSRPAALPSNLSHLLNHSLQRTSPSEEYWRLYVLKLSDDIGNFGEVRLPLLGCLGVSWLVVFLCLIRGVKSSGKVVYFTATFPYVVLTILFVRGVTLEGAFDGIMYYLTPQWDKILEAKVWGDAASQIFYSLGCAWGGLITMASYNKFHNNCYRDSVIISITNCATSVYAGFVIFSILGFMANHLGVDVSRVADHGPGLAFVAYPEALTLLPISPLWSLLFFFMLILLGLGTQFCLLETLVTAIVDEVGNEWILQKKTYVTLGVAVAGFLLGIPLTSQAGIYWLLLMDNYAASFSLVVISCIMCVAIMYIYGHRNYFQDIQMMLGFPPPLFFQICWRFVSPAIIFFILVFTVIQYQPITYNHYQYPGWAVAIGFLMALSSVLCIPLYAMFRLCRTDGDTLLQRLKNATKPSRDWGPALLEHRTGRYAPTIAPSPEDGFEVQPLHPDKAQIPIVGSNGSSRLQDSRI
# [8] = target: Glycogen synthase kinase-3 (Homo sapiens, UniProt P49840+P49841); assay: Inhibition of GSK3 (unknown origin); type: protein assay
# [9] = target: T3, Adenosine receptor A1 (Homo sapiens, UniProt P30542); assay: Inhibition of human A1 receptor
# T3 sequence (P30542 whole entry): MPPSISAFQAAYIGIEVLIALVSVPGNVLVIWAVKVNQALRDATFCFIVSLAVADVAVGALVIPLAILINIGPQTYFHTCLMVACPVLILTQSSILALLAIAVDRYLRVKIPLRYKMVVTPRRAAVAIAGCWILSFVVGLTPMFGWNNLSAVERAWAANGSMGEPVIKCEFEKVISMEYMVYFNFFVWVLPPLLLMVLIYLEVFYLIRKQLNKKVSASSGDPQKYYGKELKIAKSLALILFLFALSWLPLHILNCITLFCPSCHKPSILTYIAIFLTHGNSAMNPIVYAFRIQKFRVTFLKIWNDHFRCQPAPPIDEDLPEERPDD
# [10] = target: Adenosine A2 receptor (Homo sapiens, UniProt P29275+P29274); assay: Inhibition of GFP-tagged human A2 receptor expressed in HEK cells by FRET-binding assay; type: cell-based
# [11] = target: Glutamate [NMDA] receptor; assay: Modulator activity at NMDA receptor (unknown origin); type: protein-complex assay, Homo sapiens
# [12] = target: T4, Fatty-acid amide hydrolase 1 (Homo sapiens, UniProt O00519); assay: Inhibition of FAAH (unknown origin)
# T4 sequence (O00519 whole entry): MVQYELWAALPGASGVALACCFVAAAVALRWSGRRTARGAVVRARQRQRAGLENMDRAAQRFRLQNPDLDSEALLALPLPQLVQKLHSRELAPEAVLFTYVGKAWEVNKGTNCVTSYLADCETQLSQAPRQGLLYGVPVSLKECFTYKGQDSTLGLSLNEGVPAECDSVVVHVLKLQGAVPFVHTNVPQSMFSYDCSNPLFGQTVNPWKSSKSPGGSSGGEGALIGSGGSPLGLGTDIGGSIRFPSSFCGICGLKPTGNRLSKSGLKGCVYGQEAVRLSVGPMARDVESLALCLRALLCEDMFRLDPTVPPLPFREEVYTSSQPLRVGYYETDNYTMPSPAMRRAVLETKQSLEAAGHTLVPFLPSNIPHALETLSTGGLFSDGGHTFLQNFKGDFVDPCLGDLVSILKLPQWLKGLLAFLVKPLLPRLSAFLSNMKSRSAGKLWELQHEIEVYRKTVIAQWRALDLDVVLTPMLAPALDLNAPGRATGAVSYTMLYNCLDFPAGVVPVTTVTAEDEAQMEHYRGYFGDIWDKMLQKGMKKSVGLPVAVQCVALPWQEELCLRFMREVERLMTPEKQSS
# [13] = target: T5, 5-hydroxytryptamine receptor 4 (Homo sapiens, UniProt Q13639); assay: Inhibition of 5-HT4 receptor (unknown origin)
# T5 sequence (Q13639 whole entry): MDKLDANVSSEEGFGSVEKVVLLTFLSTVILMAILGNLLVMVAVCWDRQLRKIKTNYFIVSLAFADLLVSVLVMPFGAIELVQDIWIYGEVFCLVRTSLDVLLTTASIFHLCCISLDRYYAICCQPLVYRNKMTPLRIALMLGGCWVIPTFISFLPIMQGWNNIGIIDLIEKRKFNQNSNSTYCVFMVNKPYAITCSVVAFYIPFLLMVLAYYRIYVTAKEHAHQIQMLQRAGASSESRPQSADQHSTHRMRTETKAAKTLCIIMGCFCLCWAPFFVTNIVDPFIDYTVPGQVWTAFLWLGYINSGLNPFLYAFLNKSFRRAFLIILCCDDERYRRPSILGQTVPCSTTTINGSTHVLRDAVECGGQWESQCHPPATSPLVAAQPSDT
# [14] = target: cAMP and cAMP-inhibited cGMP 3',5'-cyclic phosphodiesterase 10A (Homo sapiens, UniProt Q9Y233); assay: Inhibition of human PDE10
# cAMP and cAMP-inhibited cGMP 3',5'-cyclic phosphodiesterase 10A, sequence (Q9Y233 whole entry): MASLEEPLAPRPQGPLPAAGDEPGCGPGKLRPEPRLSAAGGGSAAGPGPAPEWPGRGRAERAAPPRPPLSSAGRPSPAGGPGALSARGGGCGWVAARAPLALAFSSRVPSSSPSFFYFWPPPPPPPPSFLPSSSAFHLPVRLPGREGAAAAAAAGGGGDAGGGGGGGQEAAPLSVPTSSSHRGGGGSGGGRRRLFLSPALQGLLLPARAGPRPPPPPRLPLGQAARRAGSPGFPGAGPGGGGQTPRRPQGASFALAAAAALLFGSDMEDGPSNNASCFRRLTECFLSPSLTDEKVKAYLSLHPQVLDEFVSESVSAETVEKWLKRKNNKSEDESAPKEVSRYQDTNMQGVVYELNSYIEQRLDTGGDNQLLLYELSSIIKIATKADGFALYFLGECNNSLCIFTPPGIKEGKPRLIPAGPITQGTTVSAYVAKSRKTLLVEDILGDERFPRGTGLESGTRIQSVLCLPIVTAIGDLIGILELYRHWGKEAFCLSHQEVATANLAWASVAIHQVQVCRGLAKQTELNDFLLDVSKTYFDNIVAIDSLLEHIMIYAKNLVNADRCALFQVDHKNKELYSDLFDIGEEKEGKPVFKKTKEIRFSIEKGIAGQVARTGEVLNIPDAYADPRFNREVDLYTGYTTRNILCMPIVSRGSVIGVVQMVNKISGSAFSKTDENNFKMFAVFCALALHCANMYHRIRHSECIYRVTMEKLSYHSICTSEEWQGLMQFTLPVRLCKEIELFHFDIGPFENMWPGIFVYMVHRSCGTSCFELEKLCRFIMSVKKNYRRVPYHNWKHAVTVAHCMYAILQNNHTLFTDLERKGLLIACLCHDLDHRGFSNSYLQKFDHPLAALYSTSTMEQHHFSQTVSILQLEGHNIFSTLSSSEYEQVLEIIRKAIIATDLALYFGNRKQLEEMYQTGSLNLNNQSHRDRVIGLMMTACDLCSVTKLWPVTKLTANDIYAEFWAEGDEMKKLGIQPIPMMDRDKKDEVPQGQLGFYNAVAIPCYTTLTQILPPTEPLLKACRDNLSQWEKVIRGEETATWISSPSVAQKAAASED
# [15] = test system: Mus musculus; assay: Inhibition of DYRK1A in mouse at 3 mg/kg relative to control; type: functional
# [16] = target: T5, 5-hydroxytryptamine receptor 4; assay: Antagonist activity at 5-HT4 receptor (unknown origin)
# [17] = target: T6, D(4) dopamine receptor (Homo sapiens, UniProt P21917); assay: Agonist activity at dopamine D4 receptor (unknown origin)
# T6 sequence (P21917 whole entry): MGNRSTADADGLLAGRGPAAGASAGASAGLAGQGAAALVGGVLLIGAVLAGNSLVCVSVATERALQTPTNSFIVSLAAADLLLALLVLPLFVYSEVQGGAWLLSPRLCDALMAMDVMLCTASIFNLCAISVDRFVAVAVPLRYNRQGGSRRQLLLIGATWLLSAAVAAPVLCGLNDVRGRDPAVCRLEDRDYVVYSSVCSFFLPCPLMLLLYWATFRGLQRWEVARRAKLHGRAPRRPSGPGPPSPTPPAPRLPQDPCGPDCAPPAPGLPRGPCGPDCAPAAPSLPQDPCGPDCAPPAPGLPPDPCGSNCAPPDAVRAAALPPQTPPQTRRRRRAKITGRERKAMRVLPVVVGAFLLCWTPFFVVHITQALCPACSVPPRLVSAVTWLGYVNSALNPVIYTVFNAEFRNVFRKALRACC
# [18] = target: Histamine H3 receptor (Cavia porcellus, UniProt Q9JI35); assay: Inhibition of Guinea Pig Ileum H3R
# Histamine H3 receptor, sequence (Q9JI35 whole entry): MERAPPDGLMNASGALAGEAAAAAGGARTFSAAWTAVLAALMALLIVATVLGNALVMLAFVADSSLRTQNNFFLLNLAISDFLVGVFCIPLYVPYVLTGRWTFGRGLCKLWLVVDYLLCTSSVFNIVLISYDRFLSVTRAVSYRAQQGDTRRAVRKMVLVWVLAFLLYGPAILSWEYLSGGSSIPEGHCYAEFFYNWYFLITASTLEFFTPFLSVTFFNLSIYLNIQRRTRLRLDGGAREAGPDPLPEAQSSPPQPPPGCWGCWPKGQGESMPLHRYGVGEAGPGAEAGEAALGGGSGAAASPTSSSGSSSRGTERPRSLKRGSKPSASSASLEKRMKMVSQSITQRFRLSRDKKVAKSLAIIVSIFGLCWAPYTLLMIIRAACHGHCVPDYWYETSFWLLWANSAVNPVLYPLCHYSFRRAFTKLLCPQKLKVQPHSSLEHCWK
# Translocator protein, sequence (P30536 whole entry): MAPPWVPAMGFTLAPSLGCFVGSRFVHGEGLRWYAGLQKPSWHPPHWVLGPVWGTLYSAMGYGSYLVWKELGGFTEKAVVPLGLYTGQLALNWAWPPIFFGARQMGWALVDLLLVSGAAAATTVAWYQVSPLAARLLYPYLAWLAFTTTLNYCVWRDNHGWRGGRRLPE
structure (smiles),measurement,setting,value
c1cnc2[nH]cnc2c1,logD,[1]; read-out: logD,0.41
same,logP,[2]; read-out: logP,0.41
CCCN(CCC)C(=O)Cc1c(-c2ccc(Cl)cc2)nc2c(Cl)cc(Cl)cn12 [ALPDEM],Ki,[3],0.41 nM
CCCN(CCC)C(=O)Cn1c(-c2ccc(Cl)cc2)nc2cccnc21,IC50,[4],380 nM
CCCN(CCC)C(=O)Cc1c(-c2ccc(Cl)cc2)nc2c(N)cccn12,Ki,[3],1.6 nM
CCCN(CCC)C(=O)Cc1c(-c2ccc(Cl)cc2)nc2c(NC(=O)CCC(=O)OCC)cccn12,Ki,[3],0.86 nM
N[C@H]1CCCC(F)(F)[C@@H]1NC(=O)c1nc(-c2cnc3ccccn23)c(Cl)s1,IC50,[5],720 nM
Cc1cn2c(N)c(Cl)cc(C(=O)NCC3CCNCC3)c2n1,Ki,[6],26 nM
CCCN(CCC)C(=O)Cc1c(-c2ccc([N+](=O)[O-])cc2)nc2c(Cl)cc(Cl)cn12,Ki,[3],0.15 nM
Fc1ccc(C(CCCN2CCC(Cc3nc4cccnc4n3Cc3cccs3)CC2)c2ccc(F)cc2)cc1,IC50,[7],549 nM
CCCN(CCC)C(=O)Cc1c(-c2ccc(Cl)cc2)[nH]c2ccc(Cl)cc12,Ki,[3],3.9 nM
same,IC50,[4],> 1000 nM
O=C(NC1CN2CCC1CC2)c1cc(Cl)cn2ccnc12 (stereo not drawn),IC50,[6],17.5 nM
same,Ki,[6],12 nM
CCCN(CCC)C(=O)Cc1c(-c2ccc(Cl)cc2)nc2c(NC(=O)CN(Cc3ccccn3)Cc3ccccn3)cccn12,Ki,[3],293 nM
O=S(=O)(NCCCn1ccnc1)c1ccnc2[nH]c(-c3ccc(C(F)(F)F)cc3)nc12,IC50,[8],1600 nM
Cc1ccc(-c2nc3ccccn3c2NC2CCCCC2)cc1,Ki,[9],2060 nM
same,Ki,[10],> 100000 nM
CCCN(CCC)C(=O)Cc1c(-c2ccc(OC)cc2)nc2c(Cl)cc(Cl)cn12,Ki,[3],0.537 nM
same,IC50,[4],> 10000 nM
CCCCN(C)C(=O)Cc1c(-c2ccc(OC)cc2)nc2c(Cl)cc(Cl)cn12,Ki,[3],0.882 nM
same,IC50,[4],> 10000 nM
Cc1ccc2c(c1)C1CN(C)CCC1N2CCC(=O)N(C)c1c(C(F)(F)F)nc2ccc(C)cn12 (stereo not drawn),IC50,[11],33000 nM
CCSc1ccncc1NC(=O)c1ccnc2[nH]c(-c3ccc(N4CCCC4)cc3)nc12,IC50,[8],3 nM
O=C(COc1ccc(-c2ccccc2)cc1)Nc1cccc(-c2nc3ncccc3o2)c1,IC50,[12],630 nM
CCC/C=C/COCC(=O)Nc1cccc(-c2nc3ncccc3o2)c1,IC50,[12],17000 nM
CC(C)N1C(=O)N(C(=O)NC2CC3CCC(C2)N3C)C2C=CC=CC21 (stereo not drawn),EC50,[13],72 nM
Cc1nc(C2CC2c2nc3ccccn3c2C)cc(-n2nc(C)nc2C)n1 (stereo not drawn),Ki,[14],2.1 nM
CCOCCn1c(CN2CCN(CCCC(c3ccc(F)cc3)c3ccc(F)cc3)CC2)nc2cccnc21,IC50,[7],155 nM
Cc1nc2ccc(-c3cc(N)nc(N)c3)nc2n1C(C)C,inhibition in vivo at 3 mg/kg,[15],49%
c1ccn2cncc2c1,logD,[1]; read-out: logD,0.17
same,logP,[2]; read-out: logP,0.41
CCC/C=C/COCC(=O)Nc1cccc(-c2nc3cccnc3[nH]2)c1,IC50,[12],73000 nM
Cn1cnc2cccnc21,logD,[1]; read-out: logD,0.63
same,logP,[2]; read-out: logP,0.63
CCCCN1CCC(CNC(=O)c2cc(Cl)cn3ccnc23)CC1,IC50,[16],< 10 nM
O=C1NC2CCCCN2C12CCN(CCCN1c3ccccc3CCc3ccc(Cl)cc31)CC2 (stereo not drawn) [MOSAPRAMINE],Ki,[17],0.03 nM
O=C(NCCCn1ccnc1)c1ccnc2[nH]c(-c3ccc(C(F)(F)F)cc3)nc12,IC50,[8],13 nM
Cc1nc2ccc(-c3cc(N)nc(N)c3)nc2n1C1CC1,inhibition in vivo at 3 mg/kg,[15],44%
COc1ccc(-c2ccnc3[nH]c(-c4ccc(C(=O)N5CCCCC5)cc4)nc23)cc1,IC50,[8],31 nM
Cc1ccc2c(c1)C1CC(C)CCC1N2c1c(C(F)(F)F)nc2c(C)cccn12 (stereo not drawn),IC50,[11],40000 nM
CCCN(CCC)C(=O)Cc1c(-c2ccccc2)nc2ccc([N+](=O)[O-])cn12,IC50,[3],11.8 nM
same,IC50,[4],2740 nM
Cn1nc(N2CCC(OC(=O)N3CCN(C4CCC4)CC3)CC2)ccc1=O [LML-134],Ki,[18],12 nM
Clc1ccc(N2CCN(Cc3cn4ccccc4n3)CC2)cc1Cl,Ki,[17],0.99 nM
Cn1cnc2cnccc21,logD,[1]; read-out: logD,0.26
same,logP,[2]; read-out: logP,0.27
c1cc2[nH]cnc2cn1,logD,[1]; read-out: logD,0.03
same,logP,[2]; read-out: logP,0.04
N[C@H]1CCCC(F)(F)[C@@H]1NC(=O)c1cc(-c2cnc3ccccn23)cs1,IC50,[5],15 nM
CCCN(CCC)C(=O)Cc1c(-c2ccc(Cl)cc2)nc2ccc(Cl)cn12 [ALPIDEM],IC50,[3],7.9 nM
same,Ki,[3],0.5 to 7 nM
same,IC50,[4],26 nM
CCCN(CCC)C(=O)Cc1c(-c2ccc(Cl)cc2)nc2c(CC(=O)CCCCC(=O)Nc3ccn([C@@H]4O[C@H](CO)[C@@H](O)[C@@H]4O)c(=O)n3)cccn12,IC50,[3],2.13 nM
O=C(COc1ccc(-c2ccccc2)cc1)Nc1cccc(-c2nc3cccnc3[nH]2)c1,IC50,[12],13000 nM
c1ccn2ccnc2c1,logD,[1],0.73
same,logP,[2],0.41
CCN1C(=O)N(C(=O)NC2CC3CCC(C2)N3C)C2C=CC=CC21 (stereo not drawn),EC50,[13],360 nM

# Reference: ChEMBL document CHEMBL4414553, “Imidazopyridine-based selective and multifunctional ligands of biological targets associated with psychiatric and neurodegenerative diseases” (Eur J Med Chem, 2019)
